This note sets out measurements from patent US11912699B2, “Tau-protein targeting compounds and associated” (Arvinas Operations, Inc., priority 2019, dated 2024).

Where a name gives a salt, the structure may show the parent alone. Read-outs that look alike come from different tables or passages of the source.

For this test, the target named is T1, Tau P301L (Homo sapiens, UniProt P10636, P618L).
T1 construct: expressed in transfected cells
Description: In vitro tau degradation assay in CHOK1 Tau P301L cells (sarkosyl insoluble tau, WES). In kind it is cell-based. The note with it: CHO-K1, relative to DMSO doxycycline control, read-out: Tau Protein Degradation effect at 1 μM. On the procedure:
Exemplary bifunctional molecules of the present disclosure are represented by the structures in Table 1, which includes associated data. In vitro tau protein degradation data in CHOK1 Tau P301L cells, as described below, is reported based on the remaining tau protein in the sarkosyl insoluble pellet following treatment of cells for 48 hours with test compound at the 1 μM concentration where the last 24 hours doxycycline was removed. The data are represented relative to DMSO doxycycline control: • A ≤50% of tau protein remaining (>50% of tau protein degraded) • B >50% of tau protein remaining ([…] of tau protein degraded)
Data for compounds in Table 1 was generated using in vitro tau Degradation Assay protocol as described in Methods for FIGS. 2A and 2B below.
FIGS. 2A and 2B. (2A) Tau expression was induced by addition (+) of doxycycline (1 μg/ml) to ChoK1-Tau P301L clone D1.
In vitro tau Degradation Assay for FIGS. 2A and 2B. T-Rex CHOK1 cells are maintained in Ham's F-12 Nutrient Mix (ThermoFisher) plus 10% Fetal Bovine Serum Tetracycline Negative (Corning) with 10 ug/mL Blasticidin S HCl (Gibco) and 200 ug/mL Zeocin (100 mg/mL, Invitrogen). A stable clone expressing Tau P301L in the presence of doxycycline (1 μg/ml), clone D1 was selected. Compounds were diluted to indicated concentrations and used to treat cells for the indicated times. Cells were harvested from either 96, 24, 6, or 10 cm dishes coated with Poly-D-Lysine (Corning) in ice cold PBS or Buffer H+HALT Protease and phosphatase inhibitors (Thermofisher). Sarkosyl Insoluble tau was isolated as described in Eckermann et al. and Greenberg and Davies, accordingly. WES™ capillary electrophoresis analysis was performed on the Sarkosyl Insoluble tau fraction using Tau1 antibody (Milipore) unless otherwise indicated, as specified in the manufacturers specification (ProteinSimple).

Where [1] appears, read: remaining tau protein in sarkosyl insoluble pellet, CHOK1 Tau P301L cells treated 48 hours with test compound at 1 μM, doxycycline removed for the last 24 hours.

T1 sequence (P10636 1-441 isoform P10636-8 P301L): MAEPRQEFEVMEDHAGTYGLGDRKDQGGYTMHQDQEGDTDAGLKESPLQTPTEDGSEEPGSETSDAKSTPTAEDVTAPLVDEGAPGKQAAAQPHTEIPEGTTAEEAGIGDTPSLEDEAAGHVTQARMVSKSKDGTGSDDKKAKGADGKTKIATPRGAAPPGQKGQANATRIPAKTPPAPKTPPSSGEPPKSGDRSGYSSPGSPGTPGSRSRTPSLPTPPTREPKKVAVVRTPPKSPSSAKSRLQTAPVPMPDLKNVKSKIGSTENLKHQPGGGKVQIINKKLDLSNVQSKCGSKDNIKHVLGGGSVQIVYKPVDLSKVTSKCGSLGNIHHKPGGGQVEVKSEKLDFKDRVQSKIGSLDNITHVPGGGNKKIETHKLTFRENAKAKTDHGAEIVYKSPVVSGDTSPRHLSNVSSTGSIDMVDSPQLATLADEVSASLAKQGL

Regarding `Cc1cnc(Nc2ccc3cnccc3c2)cc1OCCOCCOCCOCCOc1ccc2c(c1)C(=O)N(C1CCC(=O)NC1=O)C2=O` (stereo not shown) [Compound 369, 2-(2,6-dioxopiperidin-3-yl)-5-(2-(2-(2-(2-((2-(isoquinolin-6-ylamino)-5-methylpyridin-4-yl)oxy)ethoxy)ethoxy)ethoxy)ethoxy) isoindoline-1,3-dione], under setting [1], the remaining activity at 1 µM was below 50%.
Consider `Cn1c2ccncc2c2ccc(-c3ccc(O[C@H]4C[C@H](CN5CCC(CCCN6CC(Oc7ccc8c(c7)C(=O)N(C7CCC(=O)NC7=O)C8=O)C6)CC5)C4)nc3)cc21` (stereo partly shown) [Compound 394, 2-(2,6-dioxopiperidin-3-yl)-5-((1-(3-(1-(((1r,3r)-3-((5-(5-methyl-5H-pyrido[4,3-b]indol-7-yl)pyridin-2-yl)oxy)cyclobutyl)methyl)piperidin-4-yl)propyl)azetidin-3-yl)oxy)isoindoline-1,3-dione], for which the remaining activity at 1 µM under setting [1] is above 50%.
For the compound `Cn1c2ccncc2c2ccc(C3CCN(CCC4CCN(CC5CCN(c6ccc7c(c6)C(=O)N(C6CCC(=O)NC6=O)C7=O)CC5)CC4)CC3)cc21` (stereo not shown) [Compound 502, 2-(2,6-dioxopiperidin-3-yl)-5-(4-((4-(2-(4-(5-methyl-5H-pyrido[4,3-b]indol-7-yl)piperidin-1-yl)ethyl)piperidin-1-yl)methyl)piperidin-1-yl)isoindoline-1,3-dione], under setting [1], the remaining activity at 1 µM was below 50%.
Same read-out and setting: the result for `O=C1CCC(N2Cc3cc(N4CCN(CCC5CCN(c6ncc(-c7ccc8c9cnccc9n(C(F)F)c8c7)cc6C(F)(F)F)CC5)CC4)ccc3C2=O)C(=O)N1` (stereo not shown) [Compound 543, 3-(5-(4-(2-(1-(5-(5-(difluoromethyl)-5H-pyrido[4,3-b]indol-7-yl)-3-(trifluoromethyl)pyridin-2-yl)piperidin-4-yl)ethyl)piperazin-1-yl)-1-oxoisoindolin-2-yl)piperidine-2,6-dione] reads below 50%; that for `Cn1c2ccncc2c2ccc(-c3ccc(OC4CC5(C4)CN(C(=O)CN4CCN(CC6CN(c7ccc8c(c7)C(=O)N(C7CCC(=O)NC7=O)C8=O)C6)CC4)C5)nc3)cc21` (stereo not shown) [Compound 458, 2-(2,6-dioxopiperidin-3-yl)-5-(3-((4-(2-(6-((5-(5-methyl-5H-pyrido[4,3-b]indol-7-yl)pyridin-2-yl)oxy)-2-azaspiro [3.3]heptan-2-yl)-2-oxoethyl)piperazin-1-yl)methyl)azetidin-1-yl)isoindoline-1,3-dione], above 50%; that for `O=C1CCC(N2C(=O)c3ccc(N4CCN(CCC5CCN(c6ccc(-c7ccc8c(c7)[nH]c7ccncc78)cn6)CC5)CC4)cc3C2=O)C(=O)N1` (stereo not shown) [Compound 400, 2-(2,6-dioxopiperidin-3-yl)-5-(4-[2-[1-(5-[5H-pyrido[4,3-b]indol-7-yl]pyridin-2-yl)piperidin-4-yl]ethyl]piperazin-1-yl)isoindole-1,3-dione], below 50%.
For the compound `Cc1ncsc1-c1ccc([C@H](C)NC(=O)[C@@H]2C[C@@H](O)CN2C(=O)[C@@H](c2cc(OCCCCCN3CCC(O[C@H]4C[C@H](Oc5ccc(-c6ccc7c8cnccc8n(C)c7c6)cn5)C4)CC3)no2)C(C)C)cc1` [Compound 379, (2S,4R)-4-hydroxy-1-((R)-3-methyl-2-(3-((5-(4-((1r,3r)-3-((5-(5-methyl-5H-pyrido[4,3-b]indol-7-yl)pyridin-2-yl)oxy)cyclobutoxy)piperidin-1-yl)pentyl)oxy)isoxazol-5-yl)butanoyl)-N-((S)-1-(4-(4-methylthiazol-5-yl)phenyl)ethyl) pyrrolidine-2-carboxamide], the remaining activity at 1 µM under setting [1] was above 50%.
Still for that read-out and setting: the result for `O=C1CCC(N2C(=O)c3ccc(N4CCN(CCC5CCN(c6ccc(-c7c(F)cc8c9cnccc9n(C(F)F)c8c7F)cn6)CC5)CC4)cc3C2=O)C(=O)N1` (stereo not shown) [Compound 679, 5-(4-(2-(1-(5-(5-(difluoromethyl)-6,8-difluoro-5H-pyrido[4,3-b]indol-7-yl)pyridin-2-yl)piperidin-4-yl)ethyl)piperazin-1-yl)-2-(2,6-dioxopiperidin-3-yl)isoindoline-1,3-dione] reads below 50%.
As to `Cn1c2ccncc2c2ccc(-c3ccc(N4CC(C(=O)N5CCN(CCCCCOc6ccc7c(c6)C(=O)N(C6CCC(=O)NC6=O)C7=O)CC5)C4)nc3)cc21` (stereo not shown) [Compound 446, 2-(2,6-dioxopiperidin-3-yl)-5-((5-(4-(1-(5-(5-methyl-5H-pyrido[4,3-b]indol-7-yl)pyridin-2-yl)azetidine-3-carbonyl)piperazin-1-yl)pentyl)oxy) isoindoline-1,3-dione], under setting [1], the remaining activity at 1 µM is above 50%.
Same read-out and setting: the result for `Cn1c2ccncc2c2ccc(-c3ccc(N4CC(OC5CCN(CCOc6ccc7c(c6)C(=O)N(C6CCC(=O)NC6=O)C7=O)CC5)C4)nc3)cc21` (stereo not shown) [Compound 416, 2-(2,6-dioxopiperidin-3-yl)-5-[2-(4-[[1-(5-[5-methylpyrido[4,3-b]indol-7-yl]pyridin-2-yl)azetidin-3-yl]oxy]piperidin-1-yl)ethoxy]isoindole-1,3-dione] reads below 50%; that for `CC(C)N(CCCCOc1ccc2c(c1)C(=O)N(C1CCC(=O)NC1=O)C2=O)[C@H]1CC[C@H](O[C@H]2C[C@H](Oc3ccc(-c4ccc5c6cnccc6n(C)c5c4)cn3)C2)CC1` (stereo partly drawn) [Compound 436, 2-(2,6-dioxopiperidin-3-yl)-5-(4-(isopropyl((1R,4r)-4-((1r,3R)-3-((5-(5-methyl-5H-pyrido[4,3-b]indol-7-yl)pyridin-2-yl)oxy)cyclobutoxy)cyclohexyl)amino)butoxy)isoindoline-1,3-dione], below 50%.
For `O=C1CCC(N2C(=O)c3ccc(OCCC4CCN(C[C@H]5C[C@H](Oc6cc(Nc7ccc8ncccc8n7)ccn6)C5)CC4)cc3C2=O)C(=O)N1` (stereo partly shown) [Compound 577, 5-(2-(1-(((1r,3r)-3-((4-((1,5-napthyridin-2-yl)amino)pyridin-2-yl)oxy)cyclobutyl)methyl)piperidin-4-yl)ethoxy)-2-(2,6-dioxopiperidin-3-yl)isoindoline-1,3-dione], the remaining activity at 1 µM under setting [1] was above 50%.
On the same count and under the same terms, the result for `O=C1CCC(N2C(=O)c3ccc(N4CCN(CC#CC5CCN(c6ccc7c8cnccc8n(C(F)F)c7c6)CC5)CC4)cc3C2=O)C(=O)N1` (stereo not shown) [Compound 565, formate] reads below 50%; that for `O=C1CCC(N2C(=O)c3ccc(OCCOCCOCCOCCOc4ccc5cc(-n6ccc7ccncc76)ncc5c4)cc3C2=O)C(=O)N1` (stereo not shown) [Compound 384, 5-(2-(2-(2-(2-((3-(1H-pyrrolo[2,3-c]pyridin-1-yl)isoquinolin-7-yl)oxy)ethoxy)ethoxy)ethoxy)ethoxy)-2-(2,6-dioxopiperidin-3-yl)isoindoline-1,3-dione], above 50%.
For `O=C1CCC(N2C(=O)c3ccc(N4CCC(CN5CCC(O[C@H]6C[C@H](Oc7ccc8c9cnccc9n(C(F)F)c8c7)C6)CC5)CC4)cc3C2=O)C(=O)N1` (stereo partly shown) [Compound 605, 5-(4-((4-((1r,3r)-3-((5-(difluoromethyl)-5H-pyrido[4,3-b]indol-7-yl)oxy)cyclobutoxy)piperidin-1-yl)methyl)piperidin-1-yl)-2-(2,6-dioxopiperidin-3-yl)isoindoline-1,3-dione], the remaining activity at 1 µM (CHOK1 Tau P301L cells, remaining tau in sarkosyl insoluble pellet, 48 hours with test compound at 1 μM, doxycycline removed for last 24 hours) was below 50%.
With `Cc1cc(Nc2ccc3nc(N4CCC(CCN5CCN(c6ccc7c(c6)C(=O)N(C6CCC(=O)NC6=O)C7=O)CC5)CC4)ccc3n2)ccn1` (stereo not shown) [Compound 584, 2-(2,6-dioxopiperidin-3-yl)-5-(4-(2-(1-(6-((2-methylpyridin-4-yl)amino)-1,5-naphthyridin-2-yl)piperidin-4-yl)ethyl)piperazin-1-yl)isoindoline-1,3-dione], under setting [1], the remaining activity at 1 µM was below 50%.
